Data published in BindingDB's records for patent US12454530 (Chiesi Farmaceutici, 2025).

Target: Lysophosphatidic acid receptor 1 (Homo sapiens, UniProt Q92633)
Experiment: In Vitro Assay
Experimental: CHO-hLPA1 cell lines are cultured in a humidified incubator at 5% CO2 in DMEM/F-12 (1:1) MIXTURE with 2 mM Glutamax, supplemented with 10% of Foetal Bovine Serum, 1 mM Sodium Pyruvate, 11 mM Hepes and 1× Penicillin/Streptomycin. […] Serial dilutions (1:3 or 1:4, 11 points CRC) of compounds are performed in 100% DMSO at 200× the final concentration. […] The final concentration of DMSO in the assay will be 0.5% in each well. Medium is removed by aspiration and cells are then incubated with 30 μl of a loading solution containing 5 μM of the cytoplasmic Ca2+ indicator Cal-520 AM in Assay Buffer containing 2.5 mM probenecid for 30 min at 37° C. incubator (cell loading). The loaded cell plates are transferred into the FLIPR instrument and calcium responses are monitored during the on-line addition protocols. For testing of compounds, after the cell loading, 10 μl/well of 4× antagonists' solution was added onto the cells. After 30 min pre-incubation (at 37° C.), 10 μl/well of 5× concentrated LPA EC80 was added and Ca2+ mobilization responses was followed during the on-line addition protocol. Intracellular peak fluorescence values subtracted by baseline fluorescence are exported and analysed to determine IC50 values, respectively.

Sequence of Lysophosphatidic acid receptor 1 (Q92633 whole entry): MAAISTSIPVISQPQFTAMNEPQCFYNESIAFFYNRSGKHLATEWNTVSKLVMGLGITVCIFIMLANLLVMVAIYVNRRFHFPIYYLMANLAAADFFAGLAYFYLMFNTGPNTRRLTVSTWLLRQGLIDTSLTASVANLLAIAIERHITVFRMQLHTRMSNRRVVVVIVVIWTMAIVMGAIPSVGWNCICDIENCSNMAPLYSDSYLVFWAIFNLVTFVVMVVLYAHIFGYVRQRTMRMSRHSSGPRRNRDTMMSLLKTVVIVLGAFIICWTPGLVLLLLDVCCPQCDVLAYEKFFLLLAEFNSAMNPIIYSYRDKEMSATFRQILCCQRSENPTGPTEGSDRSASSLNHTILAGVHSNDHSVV

IC50: < 50 nM
Compound: Cc1ccccc1[C@@H](C)OC(=O)Nc1c(C)noc1-c1ccc(NC(=O)[C@H]2CCCC[C@@H]2C(=O)O)c(C)n1 [US12454530, Example 32]
